Paper PMC6442119, “The antitumor activity of CYB-L10, a human topoisomerase IB catalytic inhibitor” (Journal of Enzyme Inhibition and Medicinal Chemistry, 2019)

Columns and labels:
Assay in all cases: MTT assay
DU-145 = format: cell-based; details: Homo sapiens; Parental cell line DU-145, MTT, 72 h
RC0.1 = details: Homo sapiens, 72 h, read-out: GI50 ± SD
MCF-7 = format: cell-based; details: Homo sapiens, MCF7; Parental cell line MCF-7, MTT, 72 h

## CC[C@@]1(O)C(=O)OCc2c1cc1n(c2=O)Cc2cc3ccccc3nc2-1 [CPT, Camptothecin, reference compound]
DU-145
  GI50: 19 ± 9 nM
RC0.1
  GI50: 7530 ± 1880 nM

## COc1cccc2c1C(=O)c1c(O)c3c(c(O)c1C2=O)C[C@@](O)(C(=O)CO)C[C@@H]3O[C@H]1C[C@H](N)[C@H](O)[C@H](C)O1 [DOX, doxorubicin, reference compound]
MCF-7
  GI50: 150 ± 3 nM
